Results on three substances are retold here after patent US6881577B2, “Method for improving transfection efficiency” (Max-Delbrück-Centrum für Molekulare Medizin, priority 2000, dated 2005).

Series [1] can be described thus: Dynamic light scattering of peptide/DNA complexes (apparent size, light scattering intensity). The class given is physicochemical. To be noted: for relative size of the complexes on dilution: peptide/DNA complexes diluted up to 1:16, FIGS. 13 and 14. The protocol:
In order to exclude the possibility that the observed enhancement of the transfection efficiency was mainly related to a more favorable complex formation process when using the K16-VprN peptide, size measurements (FIG. 11) and the determination of the relative particle number (FIG. 12) using dynamic light scattering were performed. […] Indeed, at a peptide to DNA charge ratio of 3 the K16-VprN peptide generates a three-fold increase of the light scattering intensity and an increase of the reporter gene expression of at least 100-times, as compared to K16-mVprN. At a peptide to DNA charge ratio of 9 the light scattering intensity increases twice as compared to charge ratio 3. However, in these conditions the reporter gene expression only increases 10 fold.
The complexes were subsequently diluted up to 1:16 and subjected to dynamic light scattering measurements.

Series [2] relates to human colon carcinoma cells (HCT 116). Briefly: Transfection of HCT 116 cells with plasmid DNA/peptide complexes (with or without LIPOFECTIN), luciferase reporter gene expression. Type of series: cell-based. An excerpt: Complexes consisting in plasmid DNA, peptide and lipid were formed and used in transfection experiments of human colon carcinoma cells (HCT 116) in vitro. The luciferase reporter gene was used in order to measure the transfection efficiency.
In addition to the construction of the mentioned K16 peptides the invention consists in the construction of DNA-peptide-lipid-complexes. A critical issue is thereby the composition of the complexes through the selection of an appropriate peptide to DNA charge ratio as well as an appropriate amount of the lipid. The procedure of complex formation (involving concentrations, volume, buffer type, incubation time and the order by which the elements are sequentially added to the mixture, see FIGS. 1-3 and 4-6) is also a critical factor determining the transfection efficiency of the system.
Based on the above described procedure for the optimization of DNA-peptide-lipid-complexes different complexes containing plasmid DNA, the K16-CYC peptide and cationic liposome (LIPOFECTIN®) were formed and subsequently used in transfection experiments of HCT 116 cells.
Complexes were formed containing plasmid DNA, the K16-VprN peptide and cationic liposome (LIPOFECTIN®) and subsequently used in transfection experiments of HCT 116 cells.
In both applications, the K16-mVprN peptide was used as a control peptide instead of the K16-VprN peptide.

Setting [3] is: peptide/DNA complex without lipid, FIG. 10.

On to “KKKKKKKKKKKKKKKKGGGNEATLELLPELKNPAVRHF (Synthetic peptide sequence, K16-mVprN, that carries 16 lysine residues for the binding of the peptide to the plasmid DNA.)”, for which the “relative size of the complexes on dilution” value in series [1] (dynamic light scattering) is given as “remains nearly constant”.

“KKKKKKKKKKKKKKKKGGGCNEWTLELLEELKNEAVRHF [K16-VprN]”: the “increase of the reporter gene expression compared to K16-mVprN” value in series [2] (peptide to DNA charge ratio of 3, without lipid, FIG. 10) is reported as “at least 100 times”. Moreover, the “increase of the reporter gene expression” value in series [2] (peptide to DNA charge ratio of 9, without lipid, FIG. 10) was 10 fold. In addition, in series [2] (setting [3]), the “amount of peptide giving the highest gene expression, less than for K16-mVprN” value is recorded as 12 times and the “increase of the maximum reporter gene expression level compared to K16-mVprN” value is listed as 10 fold. Also, the “reporter gene expression compared to the control peptide K16-mVprN” value in series [2] (with and without LIPOFECTIN, FIGS. 9 and 10) is given as “significant increase”. For the same substance, in series [1] (dynamic light scattering, FIG. 11), the “particle size of DNA complexes compared to K16-mVprN” value was “no significant difference”. The “increase of the light scattering intensity compared to K16-mVprN” value in series [1] (peptide to DNA charge ratio of 3, FIG. 12) is recorded as “three-fold”. In addition, in series [1] (peptide to DNA charge ratio of 9, FIG. 12), the “increase of light scattering intensity compared to charge ratio 3” value is reported as “twice”. In addition, the “relative size of the complexes on dilution” value in series [1] (dynamic light scattering) is reported as “remains nearly constant”.

Turning to -VKLKVYPLKKKRKP- [K16-CYC], in series [2] (complexes of plasmid DNA, peptide and LIPOFECTIN (0.5 or 1 μl), FIGS. 7 and 8), the “reporter gene expression following transfection, compared to the K16-NLS peptide” value is “dramatic increase”.
